Experimental data taken from patent US7629318B2, “Immunosuppressant compounds, methods and uses related thereto” (priority 2002, dated 2009).
Numbered stars: 1 amine (or outer) side, 2 acyl side, 3 side chain; on linkers, the order of the positions; unused ones are H or OH. Square brackets hold non-standard residues; d marks the D form. Peptide text beside a SMILES is read from it. * marks the point of attachment. ξ: configuration not given here. Gly(1-amidinopiperidin-4-yl) = N=C(N)N1CCC([C@H](N)C(=O)O)CC1; X1 = CC(C)c1oc([C@H](CO)N[*:1])nc1C(=O)[*:2]; Pro(3R-Ph) = O=C(O)[C@H]1NCC[C@@H]1c1ccccc1; Tic = O=C(O)[C@@H]1Cc2ccccc2CN1; Cha = N[C@@H](CC1CCCCC1)C(=O)O; NHPhenethyl = c1ccc(CCN*)cc1; NMe(benzyl) = CN(Cc1ccccc1)*; ξDisc = O=C(O)C1NCc2ccccc21; Nle = CCCC[C@H](N)C(=O)O; X2 = OCCOCCN(Cc1ccccc1)*; NHBn = c1ccc(CN*)cc1; X3 = OCCOCCN*

Legend:
[1] = system: T cell activation from 0401(DR4) chimeric MHCII-mice; test: In vivo inhibition of T cell activation by co-immunisation, DR4 mice immunised with HEL; design: species or system mouse; % Reduction of response to PPD(HEL): concentration or dose not given beside the values; conditions: for % Reduction of response to HEL: DR4 mice co-immunised with HEL plus compound, mean % inhibition from the control over 3 concentrations of antigen (6.7, 20 and 60 ug); for % Reduction of response to PPD(HEL): specificity control: response to PPD in the same cell pool, HEL co-immunised mice
Source text: (§1) Mouse strains DR4 and DR14 carry chimeric MHC-II transgenes that encode the N-terminal domains of the respective DR molecules (forming the peptide binding site) and the remaining (2nd extracellular domains, transmembrane and intracytoplasmic domains) of the murine class II molecule I Ed. These strains are deficient of other murine class II, and thus, all helper T cell responses are triggered by peptides presented in the respective human MHC-II binding site. As an initial in vivo test of subject inhibitors designed to bind to DR, DR-transgenic mice were co-immunized with a pre-defined dose of protein antigen and different amounts of the compound antagonist to be tested. In this set-up, both antigen and compound were emulsified together in complete Freund's adjuvant (CFA), and thus, a direct competition between the two components for presentation by DR was tested. Readout of the assay is ex vivo antigen-specific activation of T cells from regional lymph nodes explanted 9 days after co-immunization. In a typical experiment, antigen dose-response was investigated, and the curves from mice immunized with antigen were compared to those from mice co-immunized with antigen+compound. The dose response curves were generated using lymph node cells pooled at equal numbers from 2-3 mice per experimental group. The experimental system also permits assessment of inherent antigenicity of the compound antagonist. This was done by setting up a dose-response study from the same cell pool using different concentrations of the compund under investigation instead of the antigen. As a specificity control, the response to Purified Protein Derivative (PPD), the major protein component of CFA, was tested in the same cell pool.
(§2) All Gpg conataining compounds have significant immunosupressive properties in one or both of the in-vivo models. Gpg-containing compounds also show improved activity or improved specificity over the Arg-containing equivilent. Further, compounds according to Formula I show activity in this assay.
(§3) Compounds of the invention were injected as an Emulsion prepared using CFA (Bacto Adjuvant Complete H37 Ra, Difco, Order-No. 3113-60); proteins 10 mg/ml in PBS, inhibitors 5 μM in 10% DMSO. CFA, PBS, antigen, and inhibitor were placed in the barrel of a 5-ml syringe (total volume not more than 1 mL). The mixture was sonicated at an amplitude less than 40% (30-35%) for two separated 15 s periods. The emulsion should seem to be hard and not liquid at this point. A drop of emulsion placed on the surface of water should not melt. The resulting emulsion was pushed through the needle into a 1 ml syringe with a needle (Gr.18, 26G×1″), and air bubbles were removed. Mice were co-immunized with 50 μg protein and 210 nM compound antagonist in final 100 μl emulsion into the tail base. Antigen+Compound and CFA are mixed 1:1 vol/vol. The best results are obtained using DR 4 mice immunised with HEL and DR 14 mice immunized with OVA.
(§4) Mice were injected at the tail-base as follows: Holding the tail of a mouse with thumb and middle finger, the index finger was placed under the base of the mouse's tail. The needle of the syringe was inserted about 1.5 cm from the tail base (hairy end) under the skin and pushed about 1 cm into the tail. 100 μl emulsion was injected into the mouse. After 9 days, mice were killed and lymph nodes removed.
(§5) The inhibitory effect of the candidate compounds on T-cell activation was tested using T-cells and antigen-presenting cells isolated from the lymph nodes of chimeric DR4-IE transgenic mice (Taconic, USA) previously co-immunized with hen egg lysozyme plus compound, or DR14-IE transgenic mice co-immunized with ovalbumin plus compound according to standard procedures (Adorini et al., 1988, Mueller et al., 1990; Current Protocols in Immunology, Vol. 2, 7.21; Ito et al., 1996). […]

[2] = biological target: Cathepsin L (Homo sapiens, UniProt P07711)
Chain of Cathepsin L (P07711 114-333): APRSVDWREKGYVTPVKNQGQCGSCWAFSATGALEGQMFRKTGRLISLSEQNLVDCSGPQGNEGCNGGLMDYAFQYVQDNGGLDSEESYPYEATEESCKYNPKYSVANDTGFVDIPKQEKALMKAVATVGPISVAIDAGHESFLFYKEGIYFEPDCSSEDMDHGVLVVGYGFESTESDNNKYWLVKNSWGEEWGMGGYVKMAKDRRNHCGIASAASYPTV

[3] = system: T cell activation from 0404(DR14) chimeric MHCII-mice; test: In vivo inhibition of T cell activation by co-immunisation, DR14 mice immunised with OVA; design: species or system mouse; % Reduction of response to PPD(OVA): concentration or dose not given beside the values; conditions: for % Reduction of response to OVA: DR14 mice co-immunised with OVA plus compound, mean % inhibition from the control over 3 concentrations of antigen (6.7, 20 and 60 ug); for % Reduction of response to PPD(OVA): specificity control: response to PPD in the same cell pool, OVA co-immunised mice
Source text: as §1, §2, §3, §4, §5

[4] = system: HLA-DR1 transgenic mice, collagen induced arthritis; test: Collagen induced arthritis (CIA) mouse model for rheumatoid arthritis; assay type: in vivo; conditions: compared to solvent as control; s.c.
Experimental: CIA is induced by immunization with type II collagen in HLA-DR1 transgenic mice as described by Rosloniec et al (J. Exp. Med. 1997; 185: 113). After disease onset, mice are treated with compounds at the maximal tolerated dose s.c. for two weeks, and the disease development compared to that in mice treated with solvent only as follows:
Disease Severity Score • 1. Erythema and mild swelling confined to the tarsals or ankle joint • 2. Erythema and mild swelling extending from the ankle to the tarsals • 3. Erythema and moderate swelling extending from the ankle to the metatarsal joints • 4. Erythema and severe swelling encompass the ankle, foot, and digits

[5] = system: DR4 transgenic mice, EAE induced by MOG; test: Experimental autoimmune encephalomyelitis (EAE) mouse model for multiple sclerosis; assay type: in vivo; conditions: for efficacy in the EAE mouse model for multiple sclerosis prevention: compared to solvent as control, s.c.
Experimental: EAE is induced in DR4 transgenic mice by injection of myelin oligodendrocyte glycoprotein (MOG) as described by Ito et al. (1996). After disease onset, mice are treated with compounds and studied as below:
Disease Score • 1. Tail atony • 2. Hind limb weakness • 3. Hind limb paralysis • 4. Hind limb paralysis and fore limb weakness or paralysis • 5. Moribund

Compound: CCCC[C@H](NC(=O)[C@@H]1Cc2ccccc2CN1C(=O)[C@@H](NC(=O)[C@H](CC1CCCCC1)NC(C)=O)C1CCN(C(=N)N)CC1)C(=O)N(CCOCCO)Cc1ccccc1 [Compound P101, Ac-Cha-Gpg-Tic-Nle-N(Bn)CH2CH2OCH2CH2OH] (Ac-[Cha][Gly(1-amidinopiperidin-4-yl)][Tic][Nle]-X2)
- % Reduction of response to HEL [1]: 49.7%
- % Reduction of response to PPD(HEL) [1]: 41.1%

Compound: CSCC[C@H](NC(=O)[C@@H]1Cc2ccccc2CN1C(=O)[C@H](CCCNC(=N)N)NC(=O)[C@H](CC1CCCCC1)NC(C)=O)C(=O)N1CC[C@H](c2ccccc2)[C@H]1C(N)=O [Compound P31, Ac-Cha-Arg-Tic-Met-βPhPro-NH2] (Ac-[Cha]R[Tic]M[Pro(3R-Ph)]-NH2)
- Stability (Arbitrary units) Cath L 4 h [2]: 103 Arbitrary units

Compound: CCCC[C@H](NC(=O)[C@@H]1Cc2ccccc2CN1C(=O)[C@H](CCCNC(=N)N)NC(=O)[C@H](CC1CCCCC1)NC(C)=O)C(=O)N1CC[C@H](c2ccccc2)[C@H]1C(=O)N[C@@H](CO)c1nc(C(=O)N(C)C)c(C(C)C)o1 [Compound P51, Ac-Cha-Arg-Tic-Nle-βPhPro-[S(oxaz)L]-NMe2] (Ac-[Cha]R[Tic][Nle][Pro(3R-Ph)][X1]-NMe2)
- % Reduction of response to OVA [3]: 43.1%
- % Reduction of response to PPD(OVA) [3]: 3.5%

Compound: CCCC[C@H](NC(=O)[C@@H]1Cc2ccccc2CN1C(=O)[C@@H](NC(=O)[C@H](CC1CCCCC1)NC(C)=O)C1CCN(C(=N)N)CC1)C(=O)N(C)Cc1ccccc1 [Compound P74, Ac-Cha-Gpg-Tic-Nle-N(Me)Bn] (Ac-[Cha][Gly(1-amidinopiperidin-4-yl)][Tic][Nle]-{NMe(benzyl)})
- % Reduction of response to OVA [3]: 42.5%
- % Reduction of response to PPD(OVA) [3]: 5.8%
- efficacy in the CIA mouse model for rheumatoid arthritis [4]: Efficacy
- efficacy in the EAE mouse model for multiple sclerosis prevention [5]: Efficacy
- % Reduction of response to HEL [1]: 51.6%
- % Reduction of response to PPD(HEL) [1]: 12.8%

Compound: CCCC[C@H](NC(=O)[C@@H]1Cc2ccccc2CN1C(=O)[C@@H](NC(=O)[C@H](CC1CCCCC1)NC(C)=O)C1CCN(C(=N)N)CC1)C(=O)NCCOCCO [Compound P70, Ac-Cha-Gpg-Tic-Nle-N(H)CH2CH2OCH2CH2OH] (Ac-[Cha][Gly(1-amidinopiperidin-4-yl)][Tic][Nle]-X3)
- % Reduction of response to OVA [3]: 56.1%
- % Reduction of response to PPD(OVA) [3]: 52.3%

Compound: CSCC[C@H](NC(=O)C1c2ccccc2CN1C(=O)[C@@H](NC(=O)[C@H](CC1CCCCC1)NC(C)=O)C1CCN(C(=N)N)CC1)C(=O)N1CC[C@H](c2ccccc2)[C@H]1C(=O)N[C@@H](CO)c1nc(C(=O)N(C)C)c(C(C)C)o1 (stereo partly drawn) [Compound P41-1, Ac-Cha-Gpg-Disc-Met-βPhPro-[S(oxaz)L]-NMe2] (Ac-[Cha][Gly(1-amidinopiperidin-4-yl)][ξDisc]M[Pro(3R-Ph)][X1]-NMe2)
- % Reduction of response to OVA [3]: 50.1%
- % Reduction of response to PPD(OVA) [3]: 21.6%

Compound: CCCC[C@H](NC(=O)[C@@H]1Cc2ccccc2CN1C(=O)[C@@H](NC(=O)[C@H](CC1CCCCC1)NC(C)=O)C1CCN(C(=N)N)CC1)C(=O)NCc1ccccc1 [Compound P68, Ac-Cha-Gpg-Tic-Nle-N(H)Bn] (Ac-[Cha][Gly(1-amidinopiperidin-4-yl)][Tic][Nle]-NHBn)
- % Reduction of response to OVA [3]: 95.3%
- % Reduction of response to PPD(OVA) [3]: 65.9%
- % Reduction of response to HEL [1]: −3.2%
- % Reduction of response to PPD(HEL) [1]: 25.1%

Compound: CSCC[C@H](NC(=O)C1c2ccccc2CN1C(=O)[C@H](CCCNC(=N)N)NC(=O)[C@H](CC1CCCCC1)NC(C)=O)C(N)=O (stereo partly drawn) [Compound P12-1, Ac-Cha-Arg-Disc-Met-NH2] (Ac-[Cha]R[ξDisc]M-NH2)
- Stability (Arbitrary units) Cath L 4 h [2]: 101 Arbitrary units

Compound: CSCC[C@H](NC(=O)[C@@H]1Cc2ccccc2CN1C(=O)[C@H](CCCNC(=N)N)NC(=O)[C@H](CC1CCCCC1)NC(C)=O)C(N)=O [Compound P1, Ac-Cha-Arg-Tic-Met-NH2] (Ac-[Cha]R[Tic]M-NH2)
- Stability (Arbitrary units) Cath L 4 h [2]: 117 Arbitrary units

Compound: CCCC[C@H](NC(=O)[C@@H]1Cc2ccccc2CN1C(=O)[C@H](CCCNC(=N)N)NC(=O)[C@H](CC1CCCCC1)NC(C)=O)C(=O)N(C)Cc1ccccc1 [Compound P71, Ac-Cha-Arg-Tic-Nle-N(Me)Bn] (Ac-[Cha]R[Tic][Nle]-{NMe(benzyl)})
- % Reduction of response to OVA [3]: 48.8%
- % Reduction of response to PPD(OVA) [3]: 21.8%
- % Reduction of response to HEL [1]: 78.1%
- % Reduction of response to PPD(HEL) [1]: 62.1%

Compound: CCCC[C@H](NC(=O)[C@@H]1Cc2ccccc2CN1C(=O)[C@@H](NC(=O)[C@H](CC1CCCCC1)NC(C)=O)C1CCN(C(=N)N)CC1)C(=O)NCCc1ccccc1 [Compound P69, Ac-Cha-Gpg-Tic-Nle-N(H)CH2CH2Ph] (Ac-[Cha][Gly(1-amidinopiperidin-4-yl)][Tic][Nle]-NHPhenethyl)
- % Reduction of response to OVA [3]: 65.3%
- in-vivo immunosuppressive properties following co-immunisation with antigen as measured by T-cell proliferation ([3]; compared to the Arg-containing equivalent, antigen/mouse strain not stated in the legend): Superior in-vivo immunosuppressive properties
- % Reduction of response to PPD(OVA) [3]: 9%
- efficacy in the CIA mouse model for rheumatoid arthritis [4]: Efficacy
- efficacy in the EAE mouse model in terms of disease treatment, versus Arg compound ([5]; P69 at 125 nM compared to P82 at 250 nM): superior
- efficacy in the EAE mouse model for multiple sclerosis prevention [5]: Efficacy
- % Reduction of response to HEL [1]: 59%
- % Reduction of response to PPD(HEL) [1]: 2%

Compound: CSCC[C@H](NC(=O)[C@@H]1Cc2ccccc2CN1C(=O)[C@@H](NC(=O)[C@H](CC1CCCCC1)NC(C)=O)C1CCN(C(=N)N)CC1)C(=O)N(CCOCCO)Cc1ccccc1 [Compound P102, Ac-Cha-Gpg-Tic-Met-N(Bn)CH2CH2OCH2CH2OH] (Ac-[Cha][Gly(1-amidinopiperidin-4-yl)][Tic]M-X2)
- % Reduction of response to HEL [1]: 41.3%
- % Reduction of response to PPD(HEL) [1]: 31.2%

Compound: CSCC[C@H](NC(=O)[C@@H]1Cc2ccccc2CN1C(=O)[C@@H](NC(=O)[C@H](CC1CCCCC1)NC(C)=O)C1CCN(C(=N)N)CC1)C(=O)N1CC[C@H](c2ccccc2)[C@H]1C(=O)N[C@@H](CO)c1nc(C(=O)N(C)C)c(C(C)C)o1 [Compound P60, Ac-Cha-Gpg-Tic-Met-βPhPro-[S(oxaz)L]-NMe2] (Ac-[Cha][Gly(1-amidinopiperidin-4-yl)][Tic]M[Pro(3R-Ph)][X1]-NMe2)
- % Reduction of response to OVA [3]: 50.3%
- % Reduction of response to PPD(OVA) [3]: 28.1%
